We go through 65 compounds from patent publication US20230339851A1, “CXCR6 SULFONAMIDE COMPOUNDS” (CHEMOCENTRYX, INC., priority 2022, published 2023).

Bounds are passed on as bounds.

The assay deals with T1, human CXCR6 (Homo sapiens, UniProt O00574).
T1 construct: expressed in transfected cells
T1 sequence (O00574 whole entry): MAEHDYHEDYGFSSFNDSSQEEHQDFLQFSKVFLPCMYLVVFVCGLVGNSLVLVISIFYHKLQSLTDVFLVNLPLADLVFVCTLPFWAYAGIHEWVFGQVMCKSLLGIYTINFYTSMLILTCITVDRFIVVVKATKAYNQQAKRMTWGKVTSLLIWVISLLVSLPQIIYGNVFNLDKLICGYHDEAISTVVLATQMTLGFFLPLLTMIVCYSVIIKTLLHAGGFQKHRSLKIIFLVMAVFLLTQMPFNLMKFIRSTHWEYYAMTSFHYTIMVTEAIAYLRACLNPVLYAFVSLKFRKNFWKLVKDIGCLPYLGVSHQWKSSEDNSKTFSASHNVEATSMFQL
Description: Radioligand Binding Assay (125I-CXCL16 displacement). To be noted: L1.2 cells stably transfected with human CXCR6 cDNA, 0.1 nM 125I-CXCL16, 4° C., three-hour incubation; read-out: Potency (IC50). In short, it runs like this:
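L1.2 cells stably expressing human CXCR6 incubated 3 h at 4 °C in HBSS/0.1% BSA with 0.1 nM 125I-CXCL16 and graded compound concentrations. Bound radioactivity collected by filtration and counted; IC50 from 3-parameter nonlinear regression.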
Consider `CCOc1cc(NC(=O)[C@@H](O)C(C)C)ccc1S(=O)(=O)Nc1ccc(Cl)cc1` [Example 1.398], for which the concentration for half-maximal inhibition (IC50) (as a rule, the concentration that gives 50% inhibition) was in the range of 200 to 750 nM.
With `CCOc1cc(NC(=O)C(OC)c2ccccc2)ccc1S(=O)(=O)Nc1cccc(OC(F)(F)F)c1` (centres unmarked) [Example 1.399], the IC50 was at most 200 nM.
Turning to `Cc1cc(NC(=O)C(CO)C(C)C)ccc1S(=O)(=O)Nc1cccc(OC(F)(F)F)c1` (centres unmarked) [Example 1.400], the IC50 is 200 to 750 nM.
As to `CCOc1cc(NC(=O)CC(O)C2CCOCC2)ccc1S(=O)(=O)Nc1cccc(OC(F)(F)F)c1` (centres unmarked) [Example 1.401], the IC50 was in the range of 200 to 750 nM.
The figure for `CCOc1cc(NC(=O)[C@@H](O)C(C)C)ccc1S(=O)(=O)Nc1ccc(C)c(CC)c1` [Example 1.402] is at most 200 nM.
Regarding `CCOc1cc(NC(=O)c2cccnc2)ccc1S(=O)(=O)Nc1cccc(OC(F)(F)F)c1` [Example 1.403], the half-inhibitory concentration (IC50) is at most 200 nM.
As to `CCOc1cc(NC(=O)[C@@H]2CCCCC[C@@H]2O)ccc1S(=O)(=O)Nc1cccc(OC(F)(F)F)c1` [Example 1.404], the IC50 was at most 200 nM.
The figure for `CCOc1cc(NC(=O)[C@@H](CO)c2ccccc2)ccc1S(=O)(=O)Nc1ccc(F)c(C)c1` [Example 1.405] is 200 to 750 nM; for `CCOc1cc(NC(=O)C(O)C(F)(F)F)ccc1S(=O)(=O)Nc1cccc(OC(F)(F)F)c1` (centres unmarked) [Example 1.406] it is at most 200 nM; for `Cc1cc(NC(=O)c2ccc(Cl)cc2)ccc1S(=O)(=O)Nc1cccc(C(F)(F)F)c1` [Example 1.407] it is 750 to 2000 nM.
To `CCOc1cc(NC(=O)C(NC)c2ccccc2)ccc1S(=O)(=O)Nc1cccc(OC(F)(F)F)c1` (centres unmarked) [Example 1.408] belongs at most 200 nM; to `COc1cc(NC(=O)c2ccnn2C)ccc1S(=O)(=O)Nc1ccc(F)c(OC(F)(F)F)c1` [Example 1.409], at most 200 nM.
The figure for `CCOc1cc(NC(=O)[C@H]2CCOC[C@@H]2O)ccc1S(=O)(=O)Nc1cccc(OC(F)(F)F)c1` [Example 1.410] is 200 to 750 nM; for `CCOc1cc(NC(=O)[C@@H](O)C(C)C)ccc1S(=O)(=O)Nc1ccc(CC)c(C(F)(F)F)c1` [Example 1.411] it is at most 200 nM.
Take `CCOc1cc(NC(=O)[C@H]2CC[C@@H](OC)CC2)ccc1S(=O)(=O)Nc1cccc(OC(F)(F)F)c1` [Example 1.412]: the IC50 was in the range of 750 to 2000 nM.
To `CCOc1cc(NC(=O)c2ccc(OC)nc2)ccc1S(=O)(=O)Nc1cccc(OC(F)(F)F)c1` [Example 1.413] belongs at most 200 nM; to `COc1cc(NC(=O)CC2CC2)ccc1S(=O)(=O)Nc1cccc(C(F)(F)F)c1` [Example 1.414], 2000 to 20000 nM.
To `CCOc1cc(NC(=O)[C@@H](NC(C)=O)C(C)C)ccc1S(=O)(=O)Nc1cccc(OC(F)(F)F)c1` [Example 1.415] belongs at most 200 nM; to `CCOc1cc(NC(=O)[C@@H](O)C2CCCC2)ccc1S(=O)(=O)Nc1cccc(OC(F)(F)F)c1` [Example 1.416], at most 200 nM.
As to `COc1cc(NC(=O)C2CCCCC2C)ccc1S(=O)(=O)Nc1cccc(C(F)(F)F)c1` (centres unmarked) [Example 1.417], the concentration for half-maximal inhibition (IC50) lay within 750 to 2000 nM.
Turning to `CCOc1cc(NC(=O)C(CC)CO)ccc1S(=O)(=O)Nc1cccc(OC(F)(F)F)c1` (centres unmarked) [Example 1.418], the IC50 is at most 200 nM.
Regarding `COc1cc(NC(=O)CC2CCCCCC2)ccc1S(=O)(=O)Nc1cccc(C(F)(F)F)c1` [Example 1.419], the IC50 was 2000 to 20000 nM.
The figure for `CCOc1cc(NC(=O)C2CCCOC2)ccc1S(=O)(=O)Nc1cccc(OC(F)(F)F)c1` (centres unmarked) [Example 1.420] is 200 to 750 nM.
To `CCOc1cc(NC(=O)C(CC(C)C)C(=O)O)ccc1S(=O)(=O)Nc1cccc(OC(F)(F)F)c1` (centres unmarked) [Example 1.421] belongs at most 200 nM.
As for `Cc1cc(NC(=O)[C@@H]2CCCN2C)ccc1S(=O)(=O)Nc1cccc(C(F)(F)F)c1` [Example 1.422], the IC50 was in the range of 2000 to 20000 nM.
With `COCCC(=O)Nc1ccc(S(=O)(=O)Nc2cccc(C(F)(F)F)c2)c(OC)c1` [Example 1.423], the IC50 lay within 2000 to 20000 nM.
Turning to `COCC1(C(=O)Nc2ccc(S(=O)(=O)Nc3cccc(C(F)(F)F)c3)c(C)c2)CC1` [Example 1.424], the IC50 was in the range of 2000 to 20000 nM.
Regarding `CCOc1cc(NC(=O)[C@@H](CO)c2ccccc2)ccc1S(=O)(=O)Nc1ccc(C)c(C(F)(F)F)c1` [Example 1.425], the IC50 is at most 200 nM.
To `COc1cc(NC(=O)[C@@H]2CCC[C@H]2NC(=O)OC(C)(C)C)ccc1S(=O)(=O)Nc1cccc(C(F)(F)F)c1` [Example 1.426] belongs 2000 to 20000 nM.
The figure for `CCOc1cc(NC(=O)C2CCNCC2)ccc1S(=O)(=O)Nc1cccc(OC(F)(F)F)c1` [Example 1.427] is 2000 to 20000 nM.
Consider `CCOc1cc(NC(=O)C(CO)CC2CC=CCC2)ccc1S(=O)(=O)Nc1cccc(OC(F)(F)F)c1` (centres unmarked) [Example 1.428], for which the IC50 is at most 200 nM.
To `CCOc1cc(NC(=O)[C@@H](NC(=O)OC(C)(C)C)c2ccccc2)ccc1S(=O)(=O)Nc1cccc(OC(F)(F)F)c1` [Example 1.429] belongs 200 to 750 nM; to `COc1cc(NC(=O)c2cc(C(F)(F)F)nn2C)ccc1S(=O)(=O)Nc1cccc(C(F)(F)F)c1` [Example 1.430], 750 to 2000 nM.
Turning to `CCOc1cc(NC(=O)[C@@H](O)C(C)C)ccc1S(=O)(=O)Nc1ccc(F)c(CC)c1` [Example 1.431], the IC50 is at most 200 nM.
For `CCOc1cc(NC(=O)[C@H]2CCCC[C@H]2O)ccc1S(=O)(=O)Nc1cccc(OC(F)(F)F)c1` [Example 1.432], the IC50 was at most 200 nM.
Regarding `CCOc1cc(NC(=O)C2CCN(C(=O)OC(C)(C)C)CC2)ccc1S(=O)(=O)Nc1cccc(OC(F)(F)F)c1` [Example 1.433], the IC50 lay in the range of 2000 to 20000 nM.
For the compound `Cc1cc(NC(=O)C(C)(C)C)ccc1S(=O)(=O)Nc1cccc(C(F)(F)F)c1` [Example 1.434], the IC50 was 2000 to 20000 nM.
With `CCOc1cc(NC(=O)C(C)C(O)C2CCCOC2)ccc1S(=O)(=O)Nc1cccc(OC(F)(F)F)c1` (centres unmarked) [Example 1.435], the IC50 was 200 to 750 nM.
On to `CCOc1cc(NC(=O)C(C(=O)O)C2CCOC2)ccc1S(=O)(=O)Nc1cccc(OC(F)(F)F)c1` (centres unmarked) [Example 1.436], for which the IC50 was at most 200 nM.
`CCOc1cc(NC(=O)[C@@H](CO)c2ccccc2)ccc1S(=O)(=O)Nc1cccc(C(F)(F)F)c1` [Example 1.437]: the IC50 was at most 200 nM.
For `COc1cc(NC(=O)[C@@H](O)C(C)C)ccc1S(=O)(=O)Nc1cccc(OC(F)(F)F)c1` [Example 1.438], the IC50 is at most 200 nM.
As to `CCOc1cc(NC(=O)[C@@H](CO)c2ccccc2)ccc1S(=O)(=O)Nc1ccc(C)c(C(C)C)c1` [Example 1.439], the IC50 was at most 200 nM.
As to `CCOc1cc(NC(=O)[C@@H](O)C(C)C)ccc1S(=O)(=O)Nc1ccc(F)c(C)c1` [Example 1.440], the IC50 fell in the range of 200 to 750 nM.
With `CCOc1cc(NC(=O)[C@@H](CO)c2ccccc2)ccc1S(=O)(=O)Nc1ccc(C)c(Cl)c1` [Example 1.441], the IC50 is 200 to 750 nM.
With `COc1cc(NC(=O)C2CC(=O)N(C)C2)ccc1S(=O)(=O)Nc1cccc(OC(F)(F)F)c1` (centres unmarked) [Example 1.442], the IC50 was 2000 to 20000 nM.
As for `Cc1cc(NC(=O)c2cccc(C(F)(F)F)c2)ccc1S(=O)(=O)Nc1cccc(C(F)(F)F)c1` [Example 1.443], the IC50 was 2000 to 20000 nM.
As to `CC(=O)Nc1cc(C)c(S(=O)(=O)Nc2cccc(OC(F)(F)F)c2)c(F)c1` [Example 1.444], the half-maximal inhibitory concentration (IC50) is 2000 to 20000 nM.
Regarding `CCOc1cc(NC(=O)[C@@H](O)C(C)C)ccc1S(=O)(=O)Nc1ccc(C)c(C(C)C)c1` [Example 1.445], the IC50 is at most 200 nM.
The figure for `CCOc1cc(NC(=O)C(c2ccccc2)C(C)O)ccc1S(=O)(=O)Nc1cccc(OC(F)(F)F)c1` (centres unmarked) [Example 1.446] is at most 200 nM; for `Cc1cc(NC(=O)c2ccccc2)ccc1S(=O)(=O)Nc1cccc(C(F)(F)F)c1` [Example 1.447] it is 200 to 750 nM; for `COc1cc(NC(=O)c2ccnn2C)ccc1S(=O)(=O)Nc1cc(OC(F)(F)F)ccc1F` [Example 1.448] it is 200 to 750 nM.
Regarding `CCOc1cc(NC(=O)[C@H]2CCCC[C@H]2OC)ccc1S(=O)(=O)Nc1cccc(OC(F)(F)F)c1` [Example 1.449], the IC50 lay within 2000 to 20000 nM.
`Cc1cc(NC(=O)[C@@H](N)c2ccccc2)ccc1S(=O)(=O)Nc1cccc(OC(F)(F)F)c1` [Example 1.450]: the IC50 is at most 200 nM.
On to `CC(=O)Nc1cc(C)c(S(=O)(=O)Nc2cccc(C(F)(F)F)c2)c(F)c1` [Example 1.451], for which the IC50 lay in the range of 2000 to 20000 nM.
In the case of `CCOc1cc(NC(=O)C(O)c2ccc(F)cc2)ccc1S(=O)(=O)Nc1cccc(OC(F)(F)F)c1` (centres unmarked) [Example 1.452], the IC50 is at most 200 nM.
Take `CCOc1cc(NC(=O)[C@H]2CC=CC[C@@H]2CO)ccc1S(=O)(=O)Nc1cccc(OC(F)(F)F)c1` [Example 1.453]: the IC50 was at most 200 nM.
For the compound `CCOc1cc(NC(=O)[C@@H](N)C(C)C)ccc1S(=O)(=O)Nc1cccc(OC(F)(F)F)c1` [Example 1.454], the half-maximal inhibitory concentration (IC50) is at most 200 nM.
For `CCOc1cc(NC(=O)C(CO)C2CCCC2)ccc1S(=O)(=O)Nc1cccc(OC(F)(F)F)c1` (centres unmarked) [Example 1.455], the IC50 is at most 200 nM.
Consider `CC(C)c1cc(NC(=O)c2ccnn2C)ccc1S(=O)(=O)Nc1cccc(OC(F)(F)F)c1` [Example 1.456], for which the IC50 is 200 to 750 nM.
With `COc1cc(NC(=O)C2CCCCC2=O)ccc1S(=O)(=O)Nc1cccc(OC(F)(F)F)c1` (centres unmarked) [Example 1.457], the half-inhibitory concentration (IC50) was 2000 to 20000 nM.
Turning to `CCOc1cc(NC(=O)C2CCCN(C(=O)OC(C)(C)C)C2)ccc1S(=O)(=O)Nc1cccc(OC(F)(F)F)c1` (centres unmarked) [Example 1.458], the IC50 lay in the range of 2000 to 20000 nM.
With `Cc1cc(NC(=O)[C@@H](CO)c2ccccc2)ccc1S(=O)(=O)Nc1cccc(C(F)(F)F)c1` [Example 1.459], the IC50 lay within 750 to 2000 nM.
Consider `COc1cc(NC(=O)[C@@H](CO)C(C)C)ccc1S(=O)(=O)Nc1cccc(C(F)(F)F)c1` [Example 1.460], for which the IC50 is at most 200 nM.
On to `Cn1nccc1C(=O)Nc1ccc(S(=O)(=O)Nc2cccc(C(F)(F)F)c2)c(OC(F)(F)F)c1` [Example 1.461], for which the IC50 is 750 to 2000 nM.
For `CCOc1cc(NC(=O)[C@@H](N)c2ccccc2)ccc1S(=O)(=O)Nc1ccc(C)c(OC(F)(F)F)c1` [Example 1.462], the IC50 is at most 200 nM.
